Measured values from ChEMBL document CHEMBL1145395, “De novo design of selective antibiotic peptides by incorporation of unnatural amino acids” (J Med Chem, 2007).
In brackets after ≈: the same amount, converted by molar mass. Activity calls are given as the source filed them. No cut-off for these calls is given here. Non-standard residues stand in square brackets, D forms with d. Residues, ends and D or L forms follow the SMILES beside them. ξ: configuration not given here. Pro(3ξ,4ξ-(CH2)4) = O=C(O)[C@H]1NCC2CCCCC21; Oic = O=C(O)[C@@H]1C[C@@H]2CCCC[C@@H]2N1; Tic = O=C(O)[C@@H]1Cc2ccccc2CN1; dTic = O=C(O)[C@H]1Cc2ccccc2CN1; Orn = NCCC[C@H](N)C(=O)O; GABA = NCCCC(=O)O; βAla = NCCC(=O)O

What was measured:
[1] = tested on: Salmonella typhimurium; assay: Antibacterial activity against Salmonella Typhimurium ATCC 13311; type: functional, Salmonella enterica subsp. enterica serovar Typhimurium; conditions: Salmonella enterica
[2] = tested on: Mus musculus; assay: Effect on wound healing in CD1 mouse skin at 100 ug applied topically; type: functional
[3] = tested on: Staphylococcus aureus; assay: Antibacterial activity against methicillin/gentamicin/tetracycline resistant Staphylococcus aureus ATCC 33592; type: functional
[4] = tested on: Mus musculus; assay: Effect on wound healing in CD1 mouse skin at 100 ug applied topically after 5 days; type: functional
[5] = tested on: Mycobacterium; assay: Antibacterial activity against Mycobacterium ranae ATCC 110; type: functional
[6] = tested on: Mus musculus; assay: Effect on wound healing in CD1 mouse skin at 100 ug applied topically after 3 days; type: functional
[7] = tested on: Bacillus subtilis; assay: Antibacterial activity against Bacillus subtilis ATCC 43223; type: functional
[8] = tested on: Mus musculus; assay: Effect on wound healing in CD1 mouse skin at 100 ug applied topically after 11 days; type: functional
[9] = tested on: Mus musculus; assay: Effect on wound healing in CD1 mouse skin at 100 ug applied topically after 7 days; type: functional
[10] = tested on: Mus musculus; assay: Effect on wound healing in CD1 mouse skin at 100 ug applied topically after 9 days; type: functional
[11] = Toxicity to mouse RBC assessed as hemolytic activity at 25 uM; type: cell-based, Erythrocyte; conditions: red blood cells, read-out: Activity
[12] = Toxicity to mouse RBC assessed as hemolytic activity at 100 uM; type: cell-based, Erythrocyte; conditions: red blood cells, read-out: Activity
[13] = tested on: Mus musculus; assay: Acute toxicity in mouse at 25 mg/kg, ip after 6 days; type: organism-based; design: dose 25 mg/kg, route intraperitoneal; conditions: in vivo, 144 h
[14] = tested on: Mus musculus; assay: Acute toxicity in mouse at 125 mg/kg, ip after 6 days; type: organism-based; design: dose 125 mg/kg, route intraperitoneal; conditions: in vivo, 144 h
[15] = tested on: Mus musculus; assay: Acute toxicity in mouse at 5 mg/kg, ip after 6 days; type: organism-based; design: dose 5 mg/kg, route intraperitoneal; conditions: in vivo, 144 h
[16] = tested on: Mus musculus; assay: Acute toxicity in mouse at 1 mg/kg, ip after 6 days; type: organism-based; design: dose 1 mg/kg, route intraperitoneal; conditions: in vivo, 144 h
[17] = tested on: Staphylococcus aureus; assay: Antibacterial activity against methicillin/gentamicin/tetracycline resistant Staphylococcus aureus ATCC 33592 at 100 uM; type: functional, organism-based
[18] = tested on: Bacillus subtilis; assay: Antibacterial activity against Bacillus subtilis ATCC 43223 at 100 uM; type: functional, organism-based

Row | SMILES | MIC [1] | CT50 [2] | MIC [3] | Activity [4] | MIC [5] | Activity [6] | MIC [7] | Activity [8] | Activity [9] | Activity [10] | hemolysis at 25 µM [11] | hemolysis at 100 µM [12] | Activity [13] | Activity [14] | Activity [15] | Activity [16] | Activity [17] | Activity [18]
1 | CC(=O)NCCCC(=O)N[C@@H](Cc1ccccc1)C(=O)N1Cc2ccccc2C[C@H]1C(=O)N1[C@H](C(=O)NCCCC(=O)N[C@@H](CCCCN)C(=O)N2Cc3ccccc3C[C@H]2C(=O)N2[C@H](C(=O)NCCCC(=O)N[C@@H](Cc3ccccc3)C(=O)N3Cc4ccccc4C[C@H]3C(=O)N3[C@H](C(=O)NCCCC(=O)N[C@@H](CCCCN)C(=O)N4Cc5ccccc5C[C@H]4C(=O)N[C@@H](CCCCN)C(=O)N[C@@H](CCCCN)C(=O)N[C@@H](CCCCN)C(=O)N[C@@H](CCCCN)C(N)=O)C[C@@H]4CCCC[C@@H]43)C[C@@H]3CCCC[C@@H]32)C[C@@H]2CCCC[C@@H]21 (Ac-[GABA]F[Tic][Oic][GABA]K[Tic][Oic][GABA]F[Tic][Oic][GABA]K[Tic]KKKK-NH2) | 100 µM (≈ 255 µg/mL) | 5.7 days | 10 µM (≈ 25.5 µg/mL) | 54.1% | 10 µM (≈ 25.5 µg/mL) | 39.7% | 1 µM (≈ 2.55 µg/mL) | 79% | 64.9% | 72.7% |  |  |  |  |  |  |  | 
2 | CC(=O)NCCC(=O)N[C@@H](Cc1ccccc1)C(=O)N1Cc2ccccc2C[C@H]1C(=O)N1CC2CCCCC2[C@H]1C(=O)NCCC(=O)N[C@@H](CCCCN)C(=O)N1Cc2ccccc2C[C@H]1C(=O)N1CC2CCCCC2[C@H]1C(=O)NCCC(=O)N[C@@H](Cc1ccccc1)C(=O)N1Cc2ccccc2C[C@@H]1C(=O)N1CC2CCCCC2[C@H]1C(=O)NCCC(=O)N[C@@H](CCCCN)C(=O)N1Cc2ccccc2C[C@H]1C(=O)N[C@@H](CCCCN)C(=O)N[C@@H](CCCCN)C(=O)N[C@@H](CCCCN)C(=O)N[C@@H](CCCCN)C(N)=O (some centres undefined) (Ac-[βAla]F[Tic][Pro(3ξ,4ξ-(CH2)4)][βAla]K[Tic][Pro(3ξ,4ξ-(CH2)4)][βAla]F[dTic][Pro(3ξ,4ξ-(CH2)4)][βAla]K[Tic]KKKK-NH2) | 10 µM (≈ 25 µg/mL) |  | 10 µM (≈ 25 µg/mL) |  | 1 µM (≈ 2.5 µg/mL) |  | 1 µM (≈ 2.5 µg/mL) |  |  |  | 7.4% | 24.4% | Toxic | Toxic | Toxic |  |  | 
3 | CC(=O)NCC(=O)N[C@@H](Cc1ccccc1)C(=O)N1Cc2ccccc2C[C@H]1C(=O)N1CC2CCCCC2[C@H]1C(=O)NCC(=O)N[C@@H](CCCN)C(=O)N1Cc2ccccc2C[C@H]1C(=O)N1CC2CCCCC2[C@H]1C(=O)NCC(=O)N[C@@H](Cc1ccccc1)C(=O)N1Cc2ccccc2C[C@H]1C(=O)N1CC2CCCCC2[C@H]1C(=O)NCC(=O)N[C@@H](CCCN)C(=O)N1Cc2ccccc2C[C@H]1C(=O)N[C@@H](CCCN)C(=O)N[C@@H](CCCN)C(=O)N[C@@H](CCCN)C(=O)N[C@@H](CCCN)C(N)=O (some centres undefined) (Ac-GF[Tic][Pro(3ξ,4ξ-(CH2)4)]G[Orn][Tic][Pro(3ξ,4ξ-(CH2)4)]GF[Tic][Pro(3ξ,4ξ-(CH2)4)]G[Orn][Tic][Orn][Orn][Orn][Orn]-NH2) | 3 µM (≈ 7.07 µg/mL) | 4.7 days | 3 µM (≈ 7.07 µg/mL) | 51.2% | 10 µM (≈ 23.6 µg/mL) | 38.8% | 0.3 µM (≈ 0.707 µg/mL) | 81.1% | 67.2% | 72.8% |  |  |  |  |  |  |  | 
4 | CC(C)C[C@H](NC(=O)[C@@H](N)CCCCN)C(=O)N1Cc2ccccc2C[C@H]1C(=O)N1CC2CCCCC2[C@H]1C(=O)NCC(=O)N[C@@H](CCCCN)C(=O)N1Cc2ccccc2C[C@H]1C(=O)N1CC2CCCCC2[C@H]1C(=O)NCC(=O)N[C@@H](Cc1ccccc1)C(=O)N1Cc2ccccc2C[C@H]1C(=O)N1CC2CCCCC2[C@H]1C(=O)NCC(=O)N[C@@H](CCCCN)C(=O)N1Cc2ccccc2C[C@H]1C(=O)N[C@@H](CCCCN)C(=O)N[C@@H](CCCCN)C(=O)N[C@@H](CCCCN)C(=O)N[C@@H](CCCCN)C(N)=O (some centres undefined) (H-KL[Tic][Pro(3ξ,4ξ-(CH2)4)]GK[Tic][Pro(3ξ,4ξ-(CH2)4)]GF[Tic][Pro(3ξ,4ξ-(CH2)4)]GK[Tic]KKKK-NH2) | 3 µM (≈ 7.31 µg/mL) |  | 30 µM (≈ 73.1 µg/mL) |  | 3 µM (≈ 7.31 µg/mL) |  | 1 µM (≈ 2.44 µg/mL) |  |  |  | 24.9% | 43.6% | Non-toxic |  | Non-toxic | Non-toxic |  | 
5 | CC(=O)NCC(=O)N[C@@H](Cc1ccccc1)C(=O)N1Cc2ccccc2C[C@H]1C(=O)N1[C@H](C(=O)NCC(=O)N[C@@H](CCCCN)C(=O)N2Cc3ccccc3C[C@H]2C(=O)N2[C@H](C(=O)NCC(=O)N[C@@H](Cc3ccccc3)C(=O)N3Cc4ccccc4C[C@H]3C(=O)N3[C@H](C(=O)NCC(=O)N[C@@H](CCCCN)C(=O)N4Cc5ccccc5C[C@H]4C(=O)N[C@@H](CCCCN)C(=O)N[C@@H](CCCCN)C(=O)N[C@@H](CCCCN)C(=O)N[C@@H](CCCCN)C(N)=O)C[C@@H]4CCCC[C@@H]43)C[C@@H]3CCCC[C@@H]32)C[C@@H]2CCCC[C@@H]21 (Ac-GF[Tic][Oic]GK[Tic][Oic]GF[Tic][Oic]GK[Tic]KKKK-NH2) [listing 1 of 2 here] | 10 µM (≈ 24.4 µg/mL) | 6.1 days | 3 µM (≈ 7.32 µg/mL) | 51.5% | 10 µM (≈ 24.4 µg/mL) | 36.3% | 1 µM (≈ 2.44 µg/mL) | 77.5% | 63.3% | 69.8% |  |  |  |  |  |  |  | 
6 | CC[C@H](C)[C@H](NC(=O)[C@H](CCC(=O)O)NC(=O)CNC(=O)[C@@H](NC(=O)[C@H](Cc1ccccc1)NC(=O)[C@H](C)NC(=O)[C@H](CCCCN)NC(=O)CNC(=O)[C@H](Cc1ccccc1)NC(=O)[C@H](CCCCN)NC(=O)CNC(=O)[C@H](C)NC(=O)[C@H](CO)NC(=O)[C@H](Cc1cnc[nH]1)NC(=O)[C@H](CC(C)C)NC(=O)[C@H](Cc1ccccc1)NC(=O)[C@H](CCCCN)NC(=O)CNC(=O)[C@H](NC(=O)CN)[C@@H](C)CC)C(C)C)C(=O)N[C@@H](CCSC)C(=O)N[C@@H](CCCCN)C(=O)N[C@@H](CO)C(N)=O |  |  |  |  |  |  |  |  |  |  |  |  |  |  |  |  | inactive | inactive
7 | CC(=O)NCC(=O)N[C@@H](Cc1ccccc1)C(=O)N1Cc2ccccc2C[C@H]1C(=O)N1[C@H](C(=O)NCC(=O)N[C@@H](CCCCN)C(=O)N2Cc3ccccc3C[C@H]2C(=O)N2[C@H](C(=O)NCC(=O)N[C@@H](Cc3ccccc3)C(=O)N3Cc4ccccc4C[C@H]3C(=O)N3[C@H](C(=O)NCC(=O)N[C@@H](CCCCN)C(=O)N4Cc5ccccc5C[C@H]4C(=O)N[C@@H](CCCCN)C(=O)N[C@@H](CCCCN)C(=O)N[C@@H](CCCCN)C(=O)N[C@@H](CCCCN)C(N)=O)C[C@@H]4CCCC[C@@H]43)C[C@@H]3CCCC[C@@H]32)C[C@@H]2CCCC[C@@H]21 (Ac-GF[Tic][Oic]GK[Tic][Oic]GF[Tic][Oic]GK[Tic]KKKK-NH2) [listing 2 of 2 here] |  |  |  |  |  |  |  |  |  |  |  | 14% | Toxic | Toxic | Toxic |  |  | 
